Reference: patent US20060052319A9, “Sensitization of cells to cytotoxic agents using oligonucleotides directed to nucleotide excision repair or transcritpion coupled repair genes” (priority 2000, published 2006)
Like-named read-outs stand apart in the source and are kept apart here.

Key:
[1] = system: A2780/CP70 ovarian carcinoma cells; test: MTS cell proliferation assay, sensitization to cisplatin or oxaliplatin after oligonucleotide transfection; details: for reduction of the ID50 of cisplatin / reduction of the ID50 of oxaliplatin / sensitivity of the cells to cisplatin or oxaliplatin (cytotoxicity of both platinum agents): A2780/CP70 cells transfected with oligonucleotide, three days in drug, MTS assay; for potentiation of cisplatin or oxaliplatin, dose response curves normalized to HYB 1019-transfected cells: A2780/CP70 cells, normalized to control oligonucleotide
Protocol: (§8) The oligonucleotides targeting CSB (969 and 971) were tested for their ability to sensitize A2780/CP70 cells to cisplatin or oxaliplatin. Cells were transfected with oligonucleotides and 24 hours later were replated on 96 well plates. After culturing in the presence of drug for another three days, cell viability was assessed by the MTS assay.
(§9) Delivery of oligonucleotides into A2780/CP70 cells for RT-PCR and cell proliferation assays was achieved using Lipofectin (Life Technologies, Rockville, Md.) as per the manufacturer's procedure. The final concentration of oligonucleotides was 200 nM and final concentration of lipofectin was 10 μg/ml. After 4 hours incubation with the lipofectin-oligonucleotides mixture, cells were replaced with normal culture medium and treated as indicated for subsequent assays.
(§10) For A2780/CP70 cells transfected with oligonucleotides or mismatched controls, cells were harvested via trypsinization 16-24 hrs after transfection and transferred to 96 well plates at 5×10^3 cells per well. […] Twenty-four hours after transfer, cells in quadruplicate wells were treated with cisplatin (Sigma, St. Louis, Mo.) in 2 mM phosphate buffered saline (PBS) or oxaliplatin National Cancer Institute) in 4 mM PBS at serial dilutions in culture medium or with no drug and maintained for three more days. Cell survival was quantitated using the CellTiter 96 Non-radioactive Cell Proliferation Assay (Promega, Madison, Wis.). […] A Trypan blue exclusion assay was also performed to verify that the values obtained via the cell titer assay correlated to numbers of viable cells. Readings from quadruplicate wells were averaged, normalized with respect to readings obtained from cells unexposed to drug, and are presented +/− standard deviation. Statistical significance was assessed via ANOVA (one-way followed by Dunnett's multiple comparison test) using the Prism software package (GraphPad, Inc. San Diego, Calif.). P values reported are for the multiple comparison test.

[2] = system: A2780/CP70 ovarian carcinoma cells; test: Plate assay of cell proliferation in the absence of added drug (cell number by hemacytometer); type: cell-based; details: absence of any other anti-cancer agents, two days in culture
Protocol: FIG. 8 is a graphic representation showing that anti-CSB oligonucleotides retard cell proliferation in the absence of cytotoxic agents. A2780/CP70 ovarian carcinoma cells were transfected with indicated oligonucleotides and maintained in culture media for two more days to assess cell proliferation rate.
A plate assay was also performed in the absence of added drug. Cells treated with oligonucleotides or mismatched controls were maintained in culture for two days. Cells were then trypsinized and cell number was determined using a hemacytometer. Numbers from three independent experiments were averaged and standard deviation was calculated. Statistical comparison was via paired t-test.

[3] = system: A2780/CP70 ovarian carcinoma cells; test: MTS cell proliferation assay, sensitization to oxidizing agents (hydrogen peroxide, gamma radiation); type: cell-based; details: MTS assay after three days of growth; for sensitivity of cells to hydrogen peroxide: FIG. 7A; for sensitivity of cells to gamma radiation: FIG. 7B
Source text: (§1) FIG. 7A is a graphic representation showing that oligonucleotides targeting CSB mRNA sensitize ovarian carcinoma cells to oxidative damage. A2780/CP70 ovarian carcinoma cells were transfected with oligonucleotides HYB 971 (SEQ ID NO:2) targeting CSB mRNA or control antisense oligonucleotide (HYB 1019) (SEQ ID NO:5) and then transferred to 96-well dishes for exposure to hydrogen peroxide at the indicated concentrations, followed by three days of growth in normal medium and subsequent assessment of cell proliferation via MTS assay.
as §1, with “7B” for “7A”, “gamma radiation” for “hydrogen peroxide”, “doses” for “concentrations,”
(§2) The cisplatin-resistant ovarian carcinoma cell line A2780/CP70 was maintained in RPMI-1640 medium supplemented with 10% fetal bovine serum, 1× penicillin -streptomycin-neomycin (PSN) (Gibco, Rockville, Md.) 2 mM L-glutamine and 0.2 units/ml insulin (Novo Nordisk Pharmaceuticals, Princeton, N.J.) at 37_C under a humidified 5% CO2 atmosphere. SV40-immortalized CS-B fibroblasts stably transfected with pCSB or control construct (generously provided by Dr. J. Hoeijmakers, Erasmus University, Rotterdam, Netherlands were maintained as previously described (Troelstra et al. (1992) Cell 71:939-953). SV40-immortalized CS-A cell lines (CS3BE.S3.G1+pDR2 and CS3BE.S3.G1+pDR2-CSA), were also maintained as described by Henning et al. (1995) Cell 82:555-564. DNA repair competent (GM 5659C), XP-A (GM2009), and XP-G (GM3021) fibroblasts were obtained from the National Institute of General Medical Sciences Human Genetic Mutant Cell Repository (Camden, N.J.) and maintained as described by Ratner et al. (1998) J. Biolog. Chem. 273:5184-5189. Gamma radiation was administered to cells in a 96 well plate with a Gamma Cell-40 Irradiator (Nordion International, Canada) while the 96 well plate was on ice.
(§3) P values reported are for the multiple comparison test.

CSB mRNA = test: RT-PCR analysis of CSB mRNA levels after oligonucleotide transfection; type: cell-based; details: A2780/CP70 cells, 200 nM oligonucleotide with lipofectin, FIG. 3
Protocol: (§4) Total RNA was isolated from 2×10^6 cells using a total RNA isolation kit (S.N.A.P., Invitrogen, Carlsbad, Calif.) as instructed and was quantitated spectrophotometrically via absorbance at 260 nm. RT-PCR analysis was performed using the Superscript One-Step RT-PCR System (Life Technologies, Rockville, Md.). Ten ng samples of total RNA were used for RT-PCR analyses because it was determined that quantities of RT-PCR products derived from XPA and CSB mRNA varied in a linear fashion when RT-PCR was performed on total RNA samples of 1-50 ng. For CSB, primers: […]
(§5) were selected to amplify a 235-bp segment.
(§6) RT-PCR amplification was performed for 40 cycles to detect low mRNA levels while remaining in the linear range of PCR. Aliquots of amplified DNA were resolved via 1.5% agarose gel electrophoresis and visualized by ethidium bromide staining.

XP-G fibroblasts = test: MTS proliferation assay of XP-G fibroblasts versus NER proficient 5659C fibroblasts; type: cell-based, human
Protocol: (§7) Primary fibroblasts from XPA, XPG, or repair-competent individuals were exposed to oxaliplatin and assayed as described in FIGS. 1A-D.
as §2, §3

[4] = system: Immortalized CS-A fibroblasts; test: MTS proliferation assay of CS-A fibroblasts versus CSA-restored fibroblasts; type: cell-based; details: 3 days drug exposure
Protocol: as §2, §3

[5] = system: Immortalized CS-B fibroblasts; test: MTS proliferation assay of CS-B fibroblasts versus CSB-restored fibroblasts; type: cell-based; details: 3 days drug exposure
Protocol: as §2, §3

XP-A fibroblasts = test: MTS proliferation assay of XP-A fibroblasts versus NER proficient 5659C fibroblasts; type: cell-based, human
Protocol: as §7, §2, §3

XPA mRNA = test: RT-PCR analysis of XPA mRNA levels after oligonucleotide transfection; type: cell-based; details: A2780/CP70 cells, 200 nM oligonucleotide with lipofectin, FIG. 3
Protocol: as §4, §5, §6

A2780/CP70 cells = test: Growth in soft agar (colony) assay with cisplatin or oxaliplatin; type: cell-based; details: in the presence of either cisplatin or oxaliplatin, colonies counted 10 days later
Protocol: An alternative method for assessing the ability of oligonucleotides to inhibit tumor cell proliferation was also utilized. In this method, the transfected cells were transferred to soft agar containing various concentrations of oxaliplatin or cisplatin. Resulting colonies were counted 10 days later.
For growth in soft agar assay, cells transfected the previous day with oligonucleotides as described above were suspended (10^4 cells/well) in 0.5 ml of 0.3% Difco Noble agar (Becton Dickinson & Co. Microbiology Systems, Sparks, Md.) supplemented with complete culture medium and layered over 0.5 ml of 0.8% agar-medium in chambers of 24 well plates. Drug was added (day 0) and colonies counted ten days later after staining with nitroblue tetrazolium (Sigma, St. Louis, Mo.) as previously described (Rockx, et al. (2000) Proc. Nat. Acad. Sci. (USA) 97:10503-8). For this assay, statistical comparison was via paired t-test.

[6] = system: A2780/CP70 ovarian carcinoma cells
Protocol: as §8, §9, §10

In the case of “5′-(3212)-d(GGAACATCATGGTCTGCTCC)-3′ [HYB 971]”, the “reduction of the ID50 of cisplatin” value [1] is reported as 70%, the “reduction of the ID50 of oxaliplatin” value [1] is reported as 50% and the “sensitivity of the cells to cisplatin or oxaliplatin (cytotoxicity of both platinum agents)” value (“sensitivity of the cells” for short) [1] is reported as “substantially enhanced the cytotoxicity”. The “potentiation of cisplatin or oxaliplatin, dose response curves normalized to HYB 1019-transfected cells” value [1] was “robust potentiation”, the “reduction of proliferation compared to control oligonucleotide (HYB 1019) or sham transfected cells” value [2] was “about 50%” and the “sensitivity of cells to hydrogen peroxide” value [3] was “significantly increased the sensitivity”. For the same compound, the “sensitivity of cells to gamma radiation” value [3] was “significantly increased the sensitivity” and the “reduction of CSB mRNA levels” value (CSB mRNA) was “about 50%”.
`O=C([O-])C(=O)[O-].[NH-][C@@H]1CCCC[C@H]1[NH-].[Pt+4]` (relative stereo) [oxaliplatin, Cis [(1R, 2R) 1,2-cyclohexanediamine-N,N′ oxalato (2-)-O,O′] platinum] was tested, and the “sensitivity of XP-G fibroblasts versus NER proficient 5659C fibroblasts” value (XP-G fibroblasts) was “significantly more sensitive”, the “sensitivity of fibroblasts lacking functional CSA gene product versus restored WT” value [4] was “significantly more sensitive” and the “sensitivity of fibroblasts lacking functional CSB gene product versus restored WT” value [5] was “significantly more sensitive”. The “sensitivity of XP-A fibroblasts versus NER proficient 5659C fibroblasts” value (XP-A fibroblasts) was “significantly more sensitive”.
For “5′(750)-d(GGTCCATACTCATGTTGATG)-3′ (DNA, backbone and methylation of C not given here) [HYB 963]”, the “XPA mRNA levels” value (XPA mRNA) was “reduce XPA mRNA levels”, the “reduction of the ID50 of cisplatin” value [1] was “about 25%” and the “reduction of the ID50 of oxaliplatin” value [1] was “about 25%”. For the same compound, the “sensitivity of the cells” value [1] was “increase the sensitivity”.
In the case of “5′(1612)-d(GCTACATAAGACCAGTGTGC)-3′ (DNA, backbone and methylation of C not given here) [HYB 1019, reference compound]”, the “sensitivity of the cells” value [1] is reported as “did not alter the sensitivity” and the “CSB mRNA levels” value (CSB mRNA) is reported as “did not reduce the level of CSB mRNA”.
In the case of “5′(590)-d(CCAAACCTGCACGATACATC)-3′ [HYB 1040, reference compound]”, the “XPA mRNA levels” value (XPA mRNA) is reported as “did not reduce the level of XPA mRNA”.
With “5′(1110)-d(CTGACCTACCACTTCTGCAC)-3′ [HYB 964]” the “fewer colonies than control HYB 1040 or lipofectin-only (sham) transfected cells” value (A2780/CP70 cells) was “about 50%”, the “XPA mRNA levels” value (XPA mRNA) was “reduce XPA mRNA levels” and the “reduction of the ID50 of cisplatin” value [1] was “about 25%”. For the same compound, the “reduction of the ID50 of oxaliplatin” value [1] was “about 25%” and the “sensitivity of the cells” value [1] was “increase the sensitivity”.
“5′(2037)-d(GGTGACAGCAGCATTTGGAT)-3′ (DNA, backbone not given here) [HYB 969]” was tested, and the “sensitivity of the cells” value [6] was “substantially enhanced the cytotoxicity”, the “reduction of the ID50 of cisplatin” value [1] was 70% and the “reduction of the ID50 of oxaliplatin” value [1] was 50%. The “potentiation of cisplatin or oxaliplatin, dose response curves normalized to HYB 1019-transfected cells” value [1] was “robust potentiation”, the “reduction of proliferation compared to control oligonucleotide (HYB 1019) or sham transfected cells” value [2] was “about 50%” and the “sensitivity of cells to hydrogen peroxide” value [3] was “significantly increased the sensitivity”. The “sensitivity of cells to gamma radiation” value [3] was “significantly increased the sensitivity” and the “reduction of CSB mRNA levels” value (CSB mRNA) was “about 50%”.
`N.N.[Cl][Pt][Cl]` [cisplatin, CIS-diamminedichloroplatinum] was tested, and the “sensitivity of XP-G fibroblasts versus NER proficient 5659C fibroblasts” value (XP-G fibroblasts) was “significantly more sensitive”, the “sensitivity of fibroblasts lacking functional CSA gene product versus restored WT” value [4] was “significantly more sensitive” and the “sensitivity of fibroblasts lacking functional CSB gene product versus restored WT” value [5] was “significantly more sensitive”. For the same compound, the “sensitivity of XP-A fibroblasts versus NER proficient 5659C fibroblasts” value (XP-A fibroblasts) was “significantly more sensitive”.
